These results are taken from patent EP1097956A1, “Low endocrine disruptor polycarbonate resin” (Mitsubishi Gas Chemical Company, Inc., priority 1999, dated 2001).

Each structure is given as a SMILES string. Where only a bound is given, the exact number is not on record here.

The target in one series is T1, estrogen receptor (Rattus norvegicus, UniProt P06211).
T1 construct: from tissue; host or cells: uterus of matured female rat, homogenate supernatant (105,000 x G)
T1 sequence (P06211 1-600): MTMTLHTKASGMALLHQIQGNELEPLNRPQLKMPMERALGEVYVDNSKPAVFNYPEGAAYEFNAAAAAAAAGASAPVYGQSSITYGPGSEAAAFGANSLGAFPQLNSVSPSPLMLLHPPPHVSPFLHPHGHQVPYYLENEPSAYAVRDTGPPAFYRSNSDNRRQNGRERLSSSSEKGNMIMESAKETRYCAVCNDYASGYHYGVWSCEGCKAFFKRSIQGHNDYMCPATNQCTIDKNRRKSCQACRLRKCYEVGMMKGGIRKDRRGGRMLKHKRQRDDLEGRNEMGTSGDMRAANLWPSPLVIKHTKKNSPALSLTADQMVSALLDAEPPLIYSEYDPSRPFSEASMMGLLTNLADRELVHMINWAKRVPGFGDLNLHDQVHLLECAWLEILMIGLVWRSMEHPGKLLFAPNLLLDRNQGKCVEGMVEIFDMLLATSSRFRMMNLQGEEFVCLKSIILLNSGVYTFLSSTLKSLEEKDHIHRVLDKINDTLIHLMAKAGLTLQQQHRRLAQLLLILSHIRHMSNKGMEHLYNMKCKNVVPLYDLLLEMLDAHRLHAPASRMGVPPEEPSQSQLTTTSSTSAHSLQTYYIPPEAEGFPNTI
In words: estrogen receptor affinity by exchange curve method ([3H]-estradiol displacement, membrane specimen from rat uterus). In kind it is binding. The following applies: IC50, evaluated sample itself (bisphenols, phenols); concentration necessary to exchange 50% of estrogen bound receptor. An excerpt: The smaller the numeral value, the higher is affinity between a chemical substance and estrogen receptor, i.e., the higher is so-called endocrine disruptor. […]
Appendix J and "Medication receptor" P33-34, edited by Kazunari Takayanagi, Nanzando in Japan.
Firstly, a matured female rat was butchered and then its uterus was taken out. Then, fatty portions adhered to tissue portion of the uterus were removed and the uterus removed fatty portions was weighed and then placed in ice. The tissue was sliced so as to form a corner of 1 to 2 mm and. The sliced tissue was put in a Polytron homogenizer cooled in advance in ice and ice cooled TEDG buffer solution (10 mM tris·HCl((pH 7.6), 1.5 mM EDTA, 1 mM DTT and 10 % Glycerol) of 1.0 ml per 50 mg of tissue was added therein and homogenized for 5 seconds. The homogenate was put in a centrifugal tube cooled in advance and centrifuged for 60 minutes at 105,000×G(gravitational unit), whereby a supernatant liquid was obtained as a membrane specimen containing estrogen receptor.
Each the reaction solution thus prepared was vacuum dried and then placed in ice.
1 ml of the above-prepared supernatant liquid of homoginate containing estrogen receptor was added to each tube and softly stirred and then each tube was capped to incubate at 4 °C for 20 hours. Each mixed solution was poured on a filter attached a glass filter paper and aspiration filtered and then the glass filter paper was rinsed with an ice cooled rinsing buffer solution (50 mM Tris·HCl (pH7.6)). Each the glass filter paper was dried and then each radioactivity was measured with a liquid scintillation counter.
On to `Cc1cc(C2(c3ccc(O)c(C)c3)c3ccccc3-c3ccccc32)ccc1O` [BCFL, 9,9-bis(3-methyl-4-hydroxyphenyl) fluorene], for which the IC50 was > 264 µM. Still for that read-out and setting: to `Oc1ccc(C(c2ccccc2)(c2ccccc2)c2ccc(O)cc2)cc1` [BPBP, bis(4-hydroxyphenyl)diphenyl methane] belongs 6.53 µM; to `CC(C)(c1ccc(O)cc1)c1cccc(C(C)(C)c2ccc(O)cc2)c1` [BPM, 4,4'-[1,3-phenylenebis(1-methylethylidene)] bisphenol], < 0.289 µM; to `Oc1ccc(C2(c3ccc(O)cc3)CCCCC2)cc1` [BPZ, 1,1-bis(4-hydroxyphenyl) cyclohexane], < 0.373 µM. `CCCCCCCCCc1ccc(O)cc1` [NP, 4-nonylphenol] had an IC50 of 4.08 µM.

Take `C=C(CC(C)(C)c1ccc(O)cc1)c1ccc(O)cc1` [PIPLD, 4-methyl-2,4-bis(4-hydroxyphenyl)-1-pentene]: the IC50 was < 0.373 µM. The same measure, in the same setting: under `CC1CC(C)(C)CC(c2ccc(O)cc2)(c2ccc(O)cc2)C1` (centres unmarked) [TMBPZ, 3,3,5-trimethyl-1,1-bis(4-hydroxyphenyl)cyclohexane] stands < 0.322 µM; under `CC(C)(C)c1ccc(O)cc1` [p-t-butyl phenol], 173 µM.

The series is the same for the next values; noted with them: evaluated sample itself (bisphenols, phenols); concentration necessary to exchange 50% of estrogen bound receptor; read-out: IC50 (converted).
`CC(C)(c1ccc(O)cc1)c1ccc(O)cc1` [BPA, 2,2-bis(4-hydroxyphenyl) propane]: the IC50 is 32 µM. Take `Oc1ccc(C(c2ccc(O)cc2)(C(F)(F)F)C(F)(F)F)cc1` [BPAF, 2,2-bis(4-hydroxyphenyl) hexafluoropropane]: the IC50 is < 0.297 µM. Take `CC(c1ccccc1)(c1ccc(O)cc1)c1ccc(O)cc1` [BPAP, 1,1-bis(4-hydroxyphenyl)-1-phenylethane]: the IC50 is 1.72 µM.

On to `Oc1ccc(Cc2ccc(O)cc2)cc1` [BPF, bis(4-hydroxyphenyl)methane], for which the half-inhibitory concentration (IC50) is 6.99 µM.

For `Oc1ccc(C2(c3ccc(O)cc3)c3ccccc3-c3ccccc32)cc1` [BPFL, 9,9-bis(4-hydroxyphenyl) fluorene], the IC50 was < 8.85 µM. The same measure, in the same setting: under `Cc1cc(C2(c3cc(C)c(O)c(C)c3)c3ccccc3-c3ccccc32)cc(C)c1O` [BXFL, 9,9-bis(4-hydroxy-3,5-dimethylphenyl) fluorene] stands < 4.18 µM; under `CC1(C)CC2(CC(C)(C)c3ccc(O)cc32)c2cc(O)ccc21` [SPI, 6,6'-dihydroxy-3,3,3',3'-tetramethyl-1, 1'-spiro biindan], 2.92 µM.

`Oc1ccc(Sc2ccc(O)cc2)cc1` [TDP, bis(4-hydroxyphenyl) sulfide]: the IC50 is < 0.458 µM.

In another series the test system is rat.
Assay: not given
The conditions noted are these: cited from earlier work.
As to `CC(C)(c1ccc(O)cc1)c1ccc(O)cc1` [BPA, 2,2-bis(4-hydroxyphenyl) propane], the “dosage by which the action like the female hormone was developed” value is 800 mg/kg/day.

The next series concerns pregnant mice.
Assay: not given
The conditions noted are these: 2 and 20 µg/kg/day dosed orally to pregnant mice; cited from earlier work.
For `CC(C)(c1ccc(O)cc1)c1ccc(O)cc1` [BPA, 2,2-bis(4-hydroxyphenyl) propane], the “efficiency of sperm production in male offspring” value is “decrease in the efficiency of sperm production” and the “prostate weights in male offspring” value is “increase in prostate weights”.

System in a further series: not given
Assay: not given
The conditions noted are these: stipulated by the U. S. Environmental Protection Agency and the Japanese Ministry of Health and Welfare; cited from earlier work.
Take `CC(C)(c1ccc(O)cc1)c1ccc(O)cc1` [BPA, 2,2-bis(4-hydroxyphenyl) propane]: the acceptabel daily intake was 50 µg/kg/day.
